In this assay the test system is MT4. In words: Growth inhibition of HIV-1 in human lymphocyte MT-4 cells. The class given is functional, cell-based.

Structures are written as SMILES.

With `Nc1ccn([C@H]2CC[C@@H](CO)O2)c(=O)n1` (stereo in doubt; form 1) [ZALCITABINE], the midpoint of inhibition, the IC50, lay at 1 µM.

Turning to `CN1C=CCC(C(=O)Nc2ccn(C3CCC(CO)O3)c(=O)n2)=C1` (centres undefined), half-maximal inhibition (IC50) was put at 1.2 µM. For `CN1C=CCC(C(=O)OCC2CCC(n3ccc(N)nc3=O)O2)=C1` (centres undefined), the half-inhibitory concentration (IC50) (as a rule, the concentration that gives 50% inhibition) amounted to 1.2 µM.

Take `CN1C=CCC(C(=O)Nc2ccn(C3CCC(COC(=O)C4=CN(C)C=CC4)O3)c(=O)n2)=C1` (centres undefined): it took 1.9 µM to reach half-maximal inhibition (IC50).

(Values after ChEMBL document CHEMBL1126603, “Synthesis and pharmacokinetics of a dihydropyridine chemical delivery system for the antiimmunodeficiency virus agent dideoxycytidine” (J Med Chem, 1993).)
